Laboratory results published in patent publication US8071645B2, “Systems and methods for treating human inflammatory and proliferative diseases and wounds, with fatty acid metabolism inhibitors and/or glycolytic inhibitors” (The Regents of the University of Colorado, priority 2003, dated 2011).

Experiments:
[1] = test system: cell surface UCP2 on A-204 human rhabdomyosarcoma cells; test: cell surface UCP2 expression on A-204 cells by flow cytometry; assay type: cell-based; details: 24, 48, & 72 hours, FIG. 26
Protocol: Cell Surface Staining. Non-permeabilized cells were stained with antibodies to the cell surface receptors Fas (CD95) (Pharmingen) or with antibodies to uncoupling proteins (anti-UCP2 antibody) (Alpha Diagnostic International). Antibodies for both the isotype control and actual stain were added to the cell suspension, mixed, and then placed on ice for and incubation of 25 minutes in the dark. Subsequently the cells were centrifuged at 300×g for 5 minutes and the supernatant removed. The cells were washed one time with 100 μL of PBS/2.5% FBS and then transferred into flow cytometric tubes containing 500 μL of PBS/2.5% FBS for analysis.
A204 human rhabdomyosarcoma cells were cultured at a concentration of 0.5 to 1 million cells per ml. Cells were untreated or treated with etomoxir at concentrations indicated in FIG. 24 for 24, 48, & 72 hours. Cells were harvested and analyzed by flow cytometry. Dot plots are shown in FIG. 24 as functions of live versus dead cells. […] Five thousand cells were assessed for forward scatter (FS), as a function of cell size, versus side scatter (SS), as a function of cellular granularity. […]
Cells were untreated or treated with etomoxir at the concentration indicated in FIG. 26 at the indicated concentration for 24, 48, & 72 hours. Cells were harvested, stained with fluorochrome conjugated with anti-UCP2 antibody and analyzed by flow cytometry.

[2] = test system: human leukemia HL60 cells; test: DCFDA staining of HL60 cells; assay type: cell-based; details: 24 hours of incubation, FIG. 14
Protocol: (§1) Flow Cytometry. Cells were harvested, counted, and resuspended at 10^6 cells/100 μl of PBS containing 2.5% fetal calf serum in preparation for flow cytometric analysis. Cells were stained for intracellular H202 using 6-carboxy-2′,7′-dichlorodihydrofluorescein diacetate (DCF-DA, Molecular Probes, Eugene, Oreg.). Briefly, cells were incubated at 37° with 1 mM DCF-DA for 20 minutes, washed twice in PBS containing 2.5% fetal calf serum and analyzed flow cytometrically. Mitochondrial membrane potential was assessed using Mitotracker Red (CM-H2XROS, Molecular Probes, Eugene, Oreg.). The cells were resuspended in PBS containing 2.5% fetal calf serum containing a final concentration of 0.5 micromolar Mitotracker dye. The cells were incubated at 37° for 20 minutes, washed twice in PBS containing 2.5% fetal calf serum and analyzed flow cytometrically. Data were acquired on a Coulter Elite Epics or Excel flow cytometer (Coulter, Hialeah, Fla.) and analyzed with CellQuest software, (Becton Dickinson, San Jose, Calif.). […] Each sample population was classified for cell size (forward scatter) and complexity (side scatter), gated on a population of interest and evaluated using 5,000 cells. […]
The effects of etomoxir on human leukemia HL60 cells was determined. […]

[3] = test system: cell-surface Fas on drug resistant L1210/DDP cells; test: cell-surface Fas expression on L1210/DDP cells by flow cytometry; assay type: cell-based
Protocol: as §1, with “The cells were resuspended in PBS containing 2.5% fetal calf serum containing a final concentration of 0.5 micromolar Mitotracker dye.” left out
Drug sensitive L1210 cells and drug resistant L1210/DDP cells were cultured with etomoxir for 24 hours (Tx indicates treatment with etomoxir). The level of cell-surface Fas was determined using fluorochrome conjugated anti-Fas antibodies and flow cytometry. The Fas levels are measured relative to a control for staining artifacts. […]

HL60 MDR tumor = HL60 MDR tumor implanted in nude mice, tumor volume; assay type: in vivo
Source text: Tumor implantation. Mice were purchased from the Animal Production Program of National Cancer Institute, Frederick, Md. The animals used were Athymic Ncr-nu/nu (strain code 01B74). HL60 MDR cells were harvested and reconstituted at 1 million cells per 100 microliters of phosphate buffered saline. One million tumor cells per injection site were implanted subcutaneously on two sites of the animal's back. Treatments began at exactly seven days post tumor implantation. Tumor size/volume was monitored twice weekly using measurement calipers, with the formula Tumor Volume=π×(short diameter)^2×(long diameter)/6.
Mice experiments with fatty acid metabolism and glycolytic inhibitors. Fatty acid metabolism inhibitors were exemplified by etomoxir at 200 micrograms/day. Glycolytic inhibitors were exemplified by 2-deoxy-D-glucose at 2.5 mM in 100 microliters daily. The combination was administered daily, etomoxir at 200 micrograms and 2-deoxy-D-glucose at 2.5 mM in 100 microliters. All drugs were administered intra-peritoneally. 5-Fluoro-uracil, at 20 mg per kilogram mouse, was injected intra-peritoneally once a week
HL60 MDR human leukemia cells were cultured and implanted in nude mice as described above under “Materials and Methods”. The mice were given 200 ug of Etomoxir, 2.5 mM 2-Deoxy-D-glucose, or both 200 ug of Etomoxir and 2.5 mM 2-Deoxy-D-glucose given daily by IP injection. Treatment began exactly one week after tumor implantation.

SMILES: CCOC(=O)C1(CCCCCCOc2ccc(Cl)cc2)CO1 (stereo not drawn) [etomoxir, 2-(6-(4-chlorophenoxy)-hexyl)-oxirane-2-carboxylic acid ethyl ester]
- cell surface UCP2 expression in the live cells [1]: time dependent “fold” increases
- reactive oxygen intermediates (DCFDA staining) [2]: increases
- cell surface Fas ([3]; L1210/DDP, cultured with etomoxir for 24 hours, FIG. 7): significant increases
- cell surface Fas on methotrexate-treated cells ([3]; L1210 DDP, etomoxir with methotrexate, FIG. 8): promotes increases
- tumor growth versus control (HL60 MDR tumor; 21 day period, single agent): increase in tumor growth
- tumor volume, Day 7 (HL60 MDR tumor; Day 7 after implantation (start of treatment), 200 ug Etomoxir and/or 2.5 mM 2-Deoxy-D-glucose daily IP): 36 mm^3
- tumor volume, Day 9 (HL60 MDR tumor; Day 9, 200 ug Etomoxir and/or 2.5 mM 2-Deoxy-D-glucose daily IP): 71.73 mm^3
- tumor volume, Day 15 (HL60 MDR tumor; Day 15, 200 ug Etomoxir and/or 2.5 mM 2-Deoxy-D-glucose daily IP): 261.35 mm^3
- tumor volume, Day 21 (HL60 MDR tumor; Day 21, 200 ug Etomoxir and/or 2.5 mM 2-Deoxy-D-glucose daily IP): 895.09 mm^3
